Laboratory results as given in patent US11205502B2, “Processing method and processing apparatus for efficacy of combined drug” (Institute of radiation medicine, academy of military …, priority 2015, dated 2021).

System: human lung cancer cell H460 lines
Experiment: MTT method, inhibition of growth of H460 by etoposide, vincristine, 5-fluorouracil, adriamycin and three-drug combinations; expected additive effect by equivalent dose conversion
Format: cell-based
Conditions: for Efficacy of C / Efficacy of B / Efficacy of A: from fitted single-use equation
Excerpt: Title: there are many application schemes for a chemotherapeutic drug in lung cancer treatment. The chemotherapeutic drug in these schemes mainly includes the followings that belong to a topoisomerase inhibitor, a microtubule inhibitor, a metabolic inhibitor and an alkylating agent from types. One representative drug is successively selected from the four types of the drugs and respectively is etoposide (A), vincristine (B), 5-fluorouracil (C) and adriamycin (D). For any three combined application schemes, the inhibition effect to growth of human lung cancer cell H460 lines is detected with an MTT method. The three schemes successively are combinations of four combined drugs of A+B+C, A+B+D, A+C+D and B+C+D and the synergistic, additive and antagonistic effects are evaluated quantitatively. A:B:C=12.5:2:45 (μg/ml+μg/ml+μg/ml) A+B+C combination: A:B:D=12.5:2:4 (μg/ml+μg/ml+μg/ml) A+B+D combination: A:C:D=12.5:45:4 (μg/ml+μg/ml+μg/ml) A+C+D combination: B:C:D=2:45:4 (μg/ml+μg/ml+μg/ml) B+C+D combination:
For the etoposide (A), vincristine (B) and 5-fluorouracil (C), dose-effect relationship data of single drugs and dose-effect relationship data in the combined use A:B:C=12.5:2:45 (μg/ml+μg/ml+μg/ml), see a table 9 and a table 10.
Step 2, the dose is converted sequentially, and each dose-effect relationship data formed into an expected additive efficacy curve band under a combined condition is calculated.
The equivalent dose conversion is performed on combinations of two drugs of A+B, A+C and B+C sequentially first and then the equivalent dose conversion is performed on (A+B)+C, (A+C)+B and (B+C)+A. An expression for an expected additive effect of the three drugs in the combined use is as follows.
Y(A+B+C)=[Y(A+B)C, Y(A+C)+B, Y(B+c)+A] Hi^Lo↓, wherein Hi^Lo↓ Indicates function values of units in a number set and should be arranged from low to high. The Y(A+B+C)=[Y(A+B)+C, Y(A+C)+B, Y(B+c)+A]

[1] = A:B:C=12.5:2:45 fixed proportion

O=c1[nH]cc(F)c(=O)[nH]1 [5-fluorouracil (C), 5-fluorouracil]
dose range of the additive effect, 5-fluorouracil (C) [1]: 6.5815 to 19.7579 µg/mL
Efficacy of C (C 0.00017166 μg/ml): −2.8810%
Efficacy of C (C 0.00068665 μg/ml): −2.7475%
Efficacy of C (C 0.00274658 μg/ml): −2.3331%
Efficacy of C (C 0.01098633 μg/ml): −1.0631%
Efficacy of C (C 0.04394531 μg/ml): 2.6806%
Efficacy of C (C 0.17578125 μg/ml): 12.5608%
Efficacy of C (C 0.703125 μg/ml): 32.4840%
Efficacy of C (C 2.8125 μg/ml): 57.2443%
Efficacy of C (C 11.25 μg/ml): 74.5929%
Efficacy of C (C 45 μg/ml): 82.4752%
inhibition at 0.000686646 µg/mL (Homo sapiens, NCI-H460, 5-fluorouracil (C) 0.000686646 μg/ml single use, read-out: Inhibition rate): -0.33%
inhibition at 0.00274658 µg/mL (Homo sapiens, NCI-H460, 5-fluorouracil (C) 0.002746582 μg/ml single use, read-out: Inhibition rate): 6.67%
inhibition at 0.0109863 µg/mL (Homo sapiens, NCI-H460, 5-fluorouracil (C) 0.010986328 μg/ml single use, read-out: Inhibition rate): -3.78%
inhibition at 0.0439453 µg/mL (Homo sapiens, NCI-H460, 5-fluorouracil (C) 0.043945313 μg/ml single use, read-out: Inhibition rate): -6.89%
inhibition at 0.175781 µg/mL (Homo sapiens, NCI-H460, 5-fluorouracil (C) 0.17578125 μg/ml single use, read-out: Inhibition rate): 7.91%
inhibition at 0.703125 µg/mL (Homo sapiens, NCI-H460, 5-fluorouracil (C) 0.703125 μg/ml single use, read-out: Inhibition rate): 40%
inhibition at 2.8125 µg/mL (Homo sapiens, NCI-H460, 5-fluorouracil (C) 2.8125 μg/ml single use, read-out: Inhibition rate): 60.8%
inhibition at 11.25 µg/mL (Homo sapiens, NCI-H460, 5-fluorouracil (C) 11.25 μg/ml single use, read-out: Inhibition rate): 61.4%
inhibition at 45 µg/mL (Homo sapiens, NCI-H460, 5-fluorouracil (C) 45 μg/ml single use, read-out: Inhibition rate): 84.5%
inhibition at 180 µg/mL (Homo sapiens, NCI-H460, 5-fluorouracil (C) 180 μg/ml single use, read-out: Inhibition rate): 91%

CC[C@]1(O)C[C@H]2CN(CCc3c([nH]c4ccccc34)[C@@](C(=O)OC)(c3cc4c(cc3OC)N(C=O)[C@H]3[C@@](O)(C(=O)OC)[C@H](OC(C)=O)[C@]5(CC)C=CCN6CC[C@]43[C@@H]65)C2)C1 [Vincristine (B), vincristine]
dose range of the additive effect, vincristine (B) [1]: 0.2925 to 0.8781 µg/mL
Efficacy of B (B 0.00000763 μg/ml): 4.9016%
Efficacy of B (B 0.00003052 μg/ml): 4.9048%
Efficacy of B (B 0.00012207 μg/ml): 4.9268%
Efficacy of B (B 0.00048828 μg/ml): 5.0764%
Efficacy of B (B 0.00195313 μg/ml): 6.0768%
Efficacy of B (B 0.0078125 μg/ml): 12.0757%
Efficacy of B (B 0.03125 μg/ml): 33.3731%
Efficacy of B (B 0.125 μg/ml): 55.3101%
Efficacy of B (B 0.5 μg/ml): 61.7291%
Efficacy of B (B 2 μg/ml): 62.8101%
inhibition at 30.52 pg/mL (Homo sapiens, NCI-H460, Vincristine (B) 0.000030518 μg/ml single use, read-out: Inhibition rate): 2.75%
inhibition at 0.00012207 µg/mL (Homo sapiens, NCI-H460, Vincristine (B) 0.00012207 μg/ml single use, read-out: Inhibition rate): -0.11%
inhibition at 0.000488281 µg/mL (Homo sapiens, NCI-H460, Vincristine (B) 0.000488281 μg/ml single use, read-out: Inhibition rate): 13.2%
inhibition at 0.00195312 µg/mL (Homo sapiens, NCI-H460, Vincristine (B) 0.001953125 μg/ml single use, read-out: Inhibition rate): 8.91%
inhibition at 0.0078125 µg/mL (Homo sapiens, NCI-H460, Vincristine (B) 0.0078125 μg/ml single use, read-out: Inhibition rate): 6.25%
inhibition at 0.03125 µg/mL (Homo sapiens, NCI-H460, Vincristine (B) 0.03125 μg/ml single use, read-out: Inhibition rate): 37%
inhibition at 0.125 µg/mL (Homo sapiens, NCI-H460, Vincristine (B) 0.125 μg/ml single use, read-out: Inhibition rate): 53.2%
inhibition at 0.5 µg/mL (Homo sapiens, NCI-H460, Vincristine (B) 0.5 μg/ml single use, read-out: Inhibition rate): 55.9%
inhibition at 2 µg/mL (Homo sapiens, NCI-H460, Vincristine (B) 2 μg/ml single use, read-out: Inhibition rate): 65.8%
inhibition at 8 µg/mL (Homo sapiens, NCI-H460, Vincristine (B) 8 μg/ml single use, read-out: Inhibition rate): 66.3%

COc1cc([C@@H]2c3cc4c(cc3[C@@H](O[C@@H]3O[C@@H]5CO[C@@H](C)O[C@H]5[C@H](O)[C@H]3O)[C@H]3COC(=O)[C@H]23)OCO4)cc(OC)c1O [Etoposide (A), etoposide]
Efficacy of A (A 0.00004768 μg/ml): −1.3189%
Efficacy of A (A 0.00019073 μg/ml): 0.5342%
Efficacy of A (A 0.00076294 μg/ml): 3.2432%
Efficacy of A (A 0.00305176 μg/ml): 7.1153%
Efficacy of A (A 0.01220703 μg/ml): 12.4756%
Efficacy of A (A 0.048828125 μg/ml): 19.5765%
Efficacy of A (A 0.1953125 μg/ml): 28.4535%
Efficacy of A (A 0.78125 μg/ml): 38.7811%
Efficacy of A (A 3.125 μg/ml): 49.8373%
Efficacy of A (A 12.5 μg/ml): 60.6678%
dose range of the additive effect, etoposide (A) [1]: 1.8282 to 5.4883 µg/mL
inhibition at 0.000190735 µg/mL (Homo sapiens, NCI-H460, Etoposide (A) 0.000190735 μg/ml single use, read-out: Inhibition rate): 1.38%
inhibition at 0.000762939 µg/mL (Homo sapiens, NCI-H460, Etoposide (A) 0.000762939 μg/ml single use, read-out: Inhibition rate): 3.73%
inhibition at 0.00305176 µg/mL (Homo sapiens, NCI-H460, Etoposide (A) 0.003051758 μg/ml single use, read-out: Inhibition rate): -0.19%
inhibition at 0.012207 µg/mL (Homo sapiens, NCI-H460, Etoposide (A) 0.012207031 μg/ml single use, read-out: Inhibition rate): 16.7%
inhibition at 0.0488281 µg/mL (Homo sapiens, NCI-H460, Etoposide (A) 0.048828125 μg/ml single use, read-out: Inhibition rate): 17.2%
inhibition at 0.195312 µg/mL (Homo sapiens, NCI-H460, Etoposide (A) 0.1953125 μg/ml single use, read-out: Inhibition rate): 30.6%
inhibition at 0.78125 µg/mL (Homo sapiens, NCI-H460, Etoposide (A) 0.78125 μg/ml single use, read-out: Inhibition rate): 41.5%
inhibition at 3.125 µg/mL (Homo sapiens, NCI-H460, Etoposide (A) 3.125 μg/ml single use, read-out: Inhibition rate): 49.6%
inhibition at 12.5 µg/mL (Homo sapiens, NCI-H460, Etoposide (A) 12.5 μg/ml single use, read-out: Inhibition rate): 55%
inhibition at 50 µg/mL (Homo sapiens, NCI-H460, Etoposide (A) 50 μg/ml single use, read-out: Inhibition rate): 74.4%
